Assay results as given in patent US20160068843A1 (priority 2012, published 2016).
Where two headings read alike, the source gives them in different places.

Test system: H5N1 virus (strain A/Vietnam/1194/04)
Type: in vivo, Balb/c mice

SMILES	survival rate (mouse, in vivo) [%]	survival rate (comparison with existing flu therapeutics, started 24 hours post challenge, siRNA intranasal 100 ug per dose twice a day for two days) [%]
NC(=O)c1ncn([C@@H]2O[C@H](CO)[C@@H](O)[C@H]2O)n1 [Ribavirin]	0	–
CC(=O)N[C@H]1[C@H]([C@H](O)[C@H](O)CO)OC(C(=O)O)=C[C@@H]1N=C(N)N [Zanamivir]	–	40
